# Reference: patent US20140107104A1, “COMBINATION MEDICINE FOR TREATMENT OF DEPRESSION” (priority 2011, published 2014)
# Tests used:
# dentate gyrus = assay: Microarray analysis of genes expressed in the dentate gyrus; format: in vivo, mice; settings: for expression of depression-related gene group: SKF81297 3 mg/(kg day) i.p. days 10-14; for mRNA expression level Alox8: control C 2.02; for mRNA expression level Drd4: control C 29.28; for mRNA expression level Prir (second line): control C 36.03; for mRNA expression level Drd1a: control C 46.26; for mRNA expression level Prir (first line): control C 48.03; for mRNA expression level S100a4: control C 337.31; for mRNA expression level Anxa2: control C 483.27; for mRNA expression level Rgs4 (second line): control C 687.50; for mRNA expression level Htr4: control C 723.76; for mRNA expression level Furin: control C 742.58; for mRNA expression level Gfap (third line): control C 1308.81; for mRNA expression level Bdnf: control C 1312.91; for mRNA expression level Rgs4 (first line): control C 2347.43; for mRNA expression level Gfap (second line): control C 3008.11
# Description: Then, microarray analysis of genes expressed in the dentate gyrus of these mice was performed.
# The microarray analysis was performed as follows. Total RNA was isolated from the hippocampus of each mouse by TRIzol method (Invitrogen, Carlsbad, Calif.) and then purified using an RNeasy column (Qiagen, Valencia, Calif.). Double strand cDNA was synthesized from the total RNA, and in vitro transcription reaction was performed using biotin-labeled RNA prepared from the cDNA. The labeled RNA was hybridized with Mouse Genome 430 2.0 Array (Affymetrix, Santa Clara, Calif.) comprising specific probe sets, and washing was performed according to the manufacturer's recommendations. The hybridized probe array was stained with streptoavidin conjugate phycoerythrin, and each GeneChip was scanned using Affymetrix GeneChip scanner 3000 (GCS3000). GeneChip analysis was performed using Microarray Analysis Suite version 5.0.
# [1] = tested on: hippocampal dentate gyrus; assay: RT-PCR analysis of mRNA expression in hippocampal dentate gyrus after antidepressant pellet; format: in vivo, mice; settings: subcutaneously implanted pellet, 14 days, compared to placebo pellet
# Description: The method of subcutaneously implanting each pellet was as follows: a small incision about 5 mm was made in the neck skin of each mouse, a pellet was inserted through the incision to a depth of about 2 cm with tweezers for indwelling, and the skin was sutured.
# Total RNA was isolated from the hippocampal dentate gyrus of the mice treated with the fluoxetine pellet or the control pellet. First strand cDNA was prepared from 1 ug of DNaseI-treated total RNA using a reverse transcriptase QuantiTect (registered trademark, Qiagen, Valencia, Calif.). Gene expression was quantified using SYBR green (2×SYBR Green PCR Master Mix; Qiagen, Valencia, Calif.) according to the manufacturer's directions. Quantitative RT-PCR was performed using LightCycler (registered trademark) 480II real-time PCR detection system (Roche, Mannheim, Germany) in the following conditions (95° C.: 5 minutes; and then 40 cycles of 95° C.: 10 seconds, 60° C.: 30 seconds, and 65° C.: 1 minute). Beta-actin was amplified in all the samples for standardization of expression data. Whether or not the DNA region of each targeted gene was amplified was confirmed by melting curve analysis after RT-PCR (95° C.: 1 minute, 55° C.: 30 seconds, 95° C.: 30 seconds). The Ct value used was the average of 2 RT-PCR results.
# Experiments were conducted in the same manner as in “1.
# dopamine D1 receptor-GFP = assay: Immunohistochemical analysis of dentate gyrus of dopamine D1 receptor-GFP mice; format: in vivo; settings: fluoxetine pellet 14 days vs placebo pellet
# Description: Each mouse was anesthetized with sodium pentobarbital and perfused with 4% paraformaldehyde (PFA) in 0.1 M phosphate buffered saline (PBS). The brain was removed and subjected to immersion fixation in the same fixing fluid at 4° C. for another 2 hours and […] frontal-plane sections were prepared using a cryostat (Leica). The sections were washed with tris buffered saline (pH 7.4) containing Tween 20. For immunostaining, frozen sections were incubated with the following primary antibody: rabbit anti-calbindin D28K polyclonal antibody (1:3000 dilution; SWANT) at 4° C. for 18 hours. The anti-calbindin D28K polyclonal antibody is a maturation marker for granule cells. For detection of antigen localization, the sections were incubated with Alexa Fluor (594)-conjugate goat anti-rabbit IgG (1:400 dilution; Invitrogen) at 4° C. for 2 hours. Further, for nuclear staining, the sections were stained with DAPI. Fluorescent signals were each analyzed using a confocal laser scanning microscope (LSM5 Pascal, Zeiss).
# [2] = tested on: dopamine D1 receptor signaling; assay: Dopamine D1 receptor signaling in slices of the hippocampal dentate gyrus (phosphorylation of DARPP-32 and ERK); format: cell-based, mice
# Description: Harvested mouse brain was kept cool in ice-cooled and oxygenated Krebs-HCO3^− buffer, and using vibratome VT1000S (Leica Microsystems, Nussloch, Germany), 350-micrometer-thick continuous coronal slices were prepared. From the coronal slices, slices of the hippocampal dentate gyrus were cut out and used for experiments. Each slice of the hippocampal dentate gyrus was preincubated in 2 mL of Krebs-HCO3^− buffer for 60 minutes and treated with a dopamine D1 receptor agonist, namely SKF81297, and dopamine D1 receptor signaling was analyzed. As an indicator of dopamine D1 receptor signaling, phosphorylation of DARPP-32 (Thr34, PKA site) and of ERK was analyzed. The phosphorylation was analyzed by western blotting with a phosphorylation state-specific antibody.
# dopamine D1 receptor = assay: Western blotting of dopamine D1 receptor protein in hippocampal dentate gyrus; format: in vivo, mice; settings: fluoxetine pellet 14 days
# Excerpt: The samples isolated from the hippocampal dentate gyrus of mice treated with a fluoxetine pellet or a control pellet were electrophoresed using acrylamide gel, and separated proteins were electrically transferred to a nitrocellulose membrane. The D1 receptor protein transferred to the membrane was immunologically detected using a D1 receptor antibody. In the immunological detection, Odyssey near-infrared fluorescent imaging system (LI-COR Biosciences, Lincoln, Nebr.) was used.
# [3] = fluoxetine pellet 15 mg/(kg day)x14 days
Compound,expression of depression-related gene group (dentate gyrus; [3]),mRNA expression level Alox8 (dentate gyrus; same regimen),mRNA expression level Drd4 (dentate gyrus; same regimen),mRNA expression level Prir (second line) (dentate gyrus; same regimen),mRNA expression level Drd1a (dentate gyrus; same regimen),mRNA expression level Prir (first line) (dentate gyrus; same regimen),mRNA expression level S100a4 (dentate gyrus; same regimen),mRNA expression level Anxa2 (dentate gyrus; same regimen),mRNA expression level Rgs4 (second line) (dentate gyrus; same regimen),mRNA expression level Htr4 (dentate gyrus; same regimen),mRNA expression level Furin (dentate gyrus; same regimen),mRNA expression level Gfap (third line) (dentate gyrus; same regimen),mRNA expression level Bdnf (dentate gyrus; same regimen),mRNA expression level Rgs4 (first line) (dentate gyrus; same regimen),mRNA expression level Gfap (second line) (dentate gyrus; same regimen),mRNA expression of calbindin [1],mRNA expression of desmoplakin [1],mRNA expression of dopamine D1 receptor [1],mRNA expression of interleukin-1 receptor [1],"mRNA expression of tryptophan 2,3-dioxygenase [1]",other results
"Br.Oc1cc2c(c(Cl)c1O)CCNC[C@@H]2c1ccccc1 [SKF81297, R-(+)-6-chloro-7,8-dihydroxy-1-phenyl-2,3,4,5-tetrahydro-1H-3-benzazepine hydrobromide]",neither the SKF81297 sole administration nor the fluoxetine sole administration affected the expression of genes,2.12,30.92,160.90,43.87,61.94,389.62,684.27,1053.99,852.76,837.03,1962.44,1516.05,2742.21,4062.15,,,,,,"mRNA expression level S100a10 (dentate gyrus; fluoxetine pellet 15 mg/(kg day)x14 days, SKF81297 3 mg/(kg day) i.p.x5 days, control C 461.56): 469.21; mRNA expression level Gfap (first line) (dentate gyrus; same regimen, control C […]): 140.79"
CN(C)CCCN1c2ccccc2CCc2ccccc21 [imipramine],,,,,,,,,,,,,,,,less mRNA expression,less mRNA expression,increase in the mRNA expression,less mRNA expression,less mRNA expression,mRNA expression of BDNF [1]: increased
CNCCC(Oc1ccc(C(F)(F)F)cc1)c1ccccc1 (stereo not shown) [fluoxetine],neither the SKF81297 sole administration nor the fluoxetine sole administration affected the expression of genes,2.11,35.57,84.69,114.21,48.69,353.74,568.07,1215.07,903.85,799.17,1757.42,1495.90,3659.58,3185.26,less mRNA expression,less mRNA expression,increase in the mRNA expression,less mRNA expression,less mRNA expression,"expression of calbindin in granule cells (dopamine D1 receptor-GFP): lowered; expression of dopamine D1 receptor-GFP in granule cells (dopamine D1 receptor-GFP): significantly increased expression; dopamine D1 receptor signaling ([2]; fluoxetine-induced dematured dentate gyrus slices): doubled; phosphorylation of ERK induced by SKF81297 ([2]; slices from mice with fluoxetine pellet 14 days vs placebo pellet): increased; phosphorylation of DARPP-32 (Thr34, PKA site) induced by SKF81297 ([2]; slices from mice with fluoxetine pellet 14 days vs placebo pellet, SKF81297 1 uM or 10 uM): increased; protein expression of dopamine D1 receptor as compared to placebo pellet (dopamine D1 receptor): 4 times"
